Key:
Mouse primary astrocytes = assay: Astrocyte glutamate uptake; format: cell-based; details: RAC+APL [50 nM] versus RAC
Protocol: To stimulate astrocytes into a reactive state found in aging and neurodegenerative diseases per previous publications (Liddelow et al., 2017; Barbar et al., 2020), a combination of the cytokines TNF-α and IL-1α, and complement factor C1q, were added at 30 ng/mL, 3 ng/mL, and 400 ng/mL, respectively, into astrocyte culture media to make 'reactive astrocyte cocktail' (RAC) media. […] Bachem, Cat. #4029110), BAY-11-7082 (50 μM; Abcam, Cat. #ab141228) or equal volume of vehicle (0.01% DMSO in PBS) (hereafter referred to as 'RAC treatment'). […] Fresh HBSS was added to each well and 100 μM glutamate (Sigma, Cat. #G1251) was added to each well. Empty wells not containing cells were filled with HBSS and 100 μM [NT] negative control. Cells were incubated at room temperature for 3 hours before HBSS was collected and glutamate concentration determined by colorimetric assay (Sigma, Cat. #MAK004). Relative change in glutamate uptake was calculated compared to negative control wells.

Mouse astrocyte cells = assay: CXCL1 and IL-6 ELISA of astrocyte culture media after RAC treatment; format: cell-based; details: RAC+APL [50 nM]
Protocol: To stimulate astrocytes into a reactive state found in aging and neurodegenerative diseases per previous publications (Liddelow et al., 2017; Barbar et al., 2020), a combination of the cytokines TNF-α and IL-1α, and complement factor C1q, were added at 30 ng/mL, 3 ng/mL, and 400 ng/mL, respectively, into astrocyte culture media to make 'reactive astrocyte cocktail' (RAC) media. […] Bachem, Cat. #4029110), BAY-11-7082 (50 μM; Abcam, Cat. #ab141228) or equal volume of vehicle (0.01% DMSO in PBS) (hereafter referred to as 'RAC treatment'). Cells in Groups 3-6 were treated with RAC for 24 hours, with or without the test compounds (n=4 per group). • Group 1: Control [CON] • Group 2: CON+BGE-105 (50 nM) [CON+105] • Group 3: Reactive control treated with RAC only [RAC] • Group 4: RAC+BGE-105 (50 nM) [RAC+105] • Group 5: RAC+Pyrm-Apelin-13 (50 nM) • Group 6: RAC+BAY-11-7082 (NF-κB inhibitor; 50 μM) [RAC+BAY] Media from each tested cell group was collected for cytokine release analysis. Cells were lysed for RNA collection and RT-PCR was performed to synthesis cDNA under standard conditions. Next, transcriptome analysis was performed to determine the expression level of astrocyte genes or astrocyte responsive genes. Changes of expression was normalized to β-actin (FIGS. 8 and 9). Exemplary biomarkers include CCL2, CXCL10, CXCL11, CXCL1, CXCL2, CXCL3, CXCL8, EDN1, […]3, CIS, CTRL, C3, CFB, VEGF, and IL-6. For analysis of cytokines secreted by astrocytes, culture media was collected after RAC treatment, centrifuged at 10,000 RPM for 5 minutes to pellet any debris, and supernatant was transferred to a new tube and assayed immediately or frozen at -80° C. For individual analysis of CXCL1 or IL-6 concentrations, cell culture supernatant was diluted 1:50 or 1:10, respectively, and assessed using mouse-specific ELISA kits per manufacturer's protocols (R&D Systems, Cat. #DY453 and #DY406).

(Pyr^1)-Apelin-13 [reference compound]
percentage of glutamate uptake in RAC astrocytes (Mouse primary astrocytes): significantly and statistically increased | CXCL1 concentration/release compared with BGE-105 [50 nM] group (Mouse astrocyte cells): no significant difference | IL-6 concentration/release compared with BGE-105 [50 nM] group (Mouse astrocyte cells): no significant difference

Reference: patent US20240041878A1, “APELIN RECEPTOR MODULATORS FOR TREATMENT OF A DISORDER OR DISEASE ASSOCIATED WITH BBB PERMEABILITY” (BioAge Labs, Inc., priority 2022, published 2024)
